Test results published in the supplement of paper PMC10307832.

Legend:
Assay in all cases: relative viability (nuclei count vs DMSO), 5 days (fraction); higher = more cells survive
LCLC-103H = test system: LCLC-103H
Summary of the method: (§1)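 A single step with final 0.05% Triton X-100, 1% formaldehyde and 1 ug/ml Hoechst fixed the cells and stained nuclei 5 days after treatment. Lung cancer cell lines in 1536-well plates had been treated by pin tool the day after seeding with one drug alone or a fixed anchor-drug dose plus five library-drug doses (not always all listed) in √10 steps, and nuclei were counted on 4× images. Relative viability is the ratio of nuclei in treated wells to nuclei in vehicle wells, taken as the median of duplicate plates.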

LOU-NH91 = test system: LOU-NH91
Summary of the method: as §1

NCI-H596 = test system: NCI-H596
Summary of the method: as §1

NCI-H2347 = test system: NCI-H2347
Summary of the method: as §1

NCI-H650 = test system: NCI-H650
Summary of the method: as §1

HCC-44 = test system: HCC-44
Summary of the method: as §1

NCI-H838 = test system: NCI-H838
Summary of the method: as §1

NCI-H3122 = test system: NCI-H3122
Summary of the method: as §1

NCI-H647 = test system: NCI-H647
Summary of the method: as §1

NCI-H2023 = test system: NCI-H2023
Summary of the method: as §1

EMC-BAC-2 = test system: EMC-BAC-2
Summary of the method: as §1

Question: For `Cc1sc2c(c1C)C(c1ccc(Cl)cc1)=N[C@@H](CC(=O)OC(C)(C)C)c1nnc(C)n1-2` [JQ1] + COc1cccc2cc(-c3nc([C@H]4CC[C@H](C(=O)O)CC4)n4ncnc(N)c34)[nH]c12 [OSI-027] (partner 0.5 µM), which relative viability (LCLC-103H; first compound 0.04 µM) is on record?
Answer: The relative viability was 0.443.

Question: And the relative viability (LCLC-103H; first compound 0.1265 µM)?
Answer: Its relative viability is 0.448.

Question: And the relative viability (LCLC-103H; first compound 0.4 µM)?
Answer: The relative viability was 0.367.

Question: What about the relative viability (LCLC-103H; first compound 1.265 µM) of the same compound?
Answer: The relative viability was 0.357.

Question: What about the relative viability (LCLC-103H; first compound 4 µM) of the same compound?
Answer: Its relative viability is 0.29.

Question: And the relative viability (LOU-NH91; first compound 0.04 µM)?
Answer: Its relative viability is 0.721.

Question: What about the relative viability (LOU-NH91; first compound 0.1265 µM) of the same compound?
Answer: The relative viability was 0.674.

Question: What about the relative viability (LOU-NH91; first compound 0.4 µM) of the same compound?
Answer: Its relative viability is 0.564.

Question: And the relative viability (LOU-NH91; first compound 1.265 µM)?
Answer: The relative viability was 0.537.

Question: What about the relative viability (LOU-NH91; first compound 4 µM) of the same compound?
Answer: The relative viability was 0.431.

Question: What about the relative viability (NCI-H596; first compound 0.04 µM) of the same compound?
Answer: The relative viability was 0.809.

Question: And the relative viability (NCI-H596; first compound 0.1265 µM)?
Answer: Its relative viability is 0.892.

Question: And the relative viability (NCI-H596; first compound 0.4 µM)?
Answer: The relative viability was 0.539.

Question: What about the relative viability (NCI-H596; first compound 1.265 µM) of the same compound?
Answer: Its relative viability is 0.334.

Question: What about the relative viability (NCI-H596; first compound 4 µM) of the same compound?
Answer: Its relative viability is 0.283.

Question: What about the relative viability (NCI-H2347; first compound 0.04 µM) of the same compound?
Answer: Its relative viability is 0.328.

Question: And the relative viability (NCI-H2347; first compound 0.1265 µM)?
Answer: The relative viability was 0.536.

Question: What about the relative viability (NCI-H2347; first compound 0.4 µM) of the same compound?
Answer: The relative viability was 0.305.

Question: What about the relative viability (NCI-H2347; first compound 1.265 µM) of the same compound?
Answer: The relative viability was 0.346.

Question: And the relative viability (NCI-H2347; first compound 4 µM)?
Answer: The relative viability was 0.31.

Question: And the relative viability (NCI-H650; first compound 0.04 µM)?
Answer: The relative viability was 0.584.

Question: And the relative viability (NCI-H650; first compound 0.1265 µM)?
Answer: Its relative viability is 0.41.

Question: And the relative viability (NCI-H650; first compound 0.4 µM)?
Answer: The relative viability was 0.415.

Question: And the relative viability (NCI-H650; first compound 1.265 µM)?
Answer: The relative viability was 0.25.

Question: And the relative viability (NCI-H650; first compound 4 µM)?
Answer: Its relative viability is 0.192.

Question: What about the relative viability (HCC-44; first compound 0.04 µM) of the same compound?
Answer: The relative viability was 0.477.

Question: What about the relative viability (HCC-44; first compound 0.1265 µM) of the same compound?
Answer: Its relative viability is 0.293.

Question: And the relative viability (HCC-44; first compound 0.4 µM)?
Answer: The relative viability was 0.484.

Question: And the relative viability (HCC-44; first compound 1.265 µM)?
Answer: Its relative viability is 0.288.

Question: And the relative viability (HCC-44; first compound 4 µM)?
Answer: The relative viability was 0.214.

Question: What about the relative viability (NCI-H838; first compound 0.04 µM) of the same compound?
Answer: Its relative viability is 0.379.

Question: What about the relative viability (NCI-H838; first compound 0.1265 µM) of the same compound?
Answer: The relative viability was 0.369.

Question: What about the relative viability (NCI-H838; first compound 0.4 µM) of the same compound?
Answer: The relative viability was 0.433.

Question: And the relative viability (NCI-H838; first compound 1.265 µM)?
Answer: The relative viability was 0.251.

Question: What about the relative viability (NCI-H838; first compound 4 µM) of the same compound?
Answer: Its relative viability is 0.21.

Question: And the relative viability (NCI-H3122; first compound 0.04 µM)?
Answer: Its relative viability is 0.898.

Question: What about the relative viability (NCI-H3122; first compound 0.4 µM) of the same compound?
Answer: The relative viability was 0.784.

Question: What about the relative viability (NCI-H3122; first compound 1.265 µM) of the same compound?
Answer: The relative viability was 0.392.

Question: And the relative viability (NCI-H3122; first compound 4 µM)?
Answer: The relative viability was 0.264.

Question: What about the relative viability (NCI-H647; first compound 0.04 µM) of the same compound?
Answer: The relative viability was 0.567.

Question: And the relative viability (NCI-H647; first compound 0.1265 µM)?
Answer: The relative viability was 0.469.

Question: What about the relative viability (NCI-H647; first compound 0.4 µM) of the same compound?
Answer: Its relative viability is 0.388.

Question: What about the relative viability (NCI-H647; first compound 1.265 µM) of the same compound?
Answer: Its relative viability is 0.293.

Question: What about the relative viability (NCI-H647; first compound 4 µM) of the same compound?
Answer: Its relative viability is 0.174.

Question: And the relative viability (NCI-H2023; first compound 0.04 µM)?
Answer: The relative viability was 0.362.

Question: And the relative viability (NCI-H2023; first compound 0.1265 µM)?
Answer: Its relative viability is 0.377.

Question: And the relative viability (NCI-H2023; first compound 0.4 µM)?
Answer: The relative viability was 0.262.

Question: And the relative viability (NCI-H2023; first compound 1.265 µM)?
Answer: Its relative viability is 0.142.

Question: What about the relative viability (NCI-H2023; first compound 4 µM) of the same compound?
Answer: Its relative viability is 0.148.

Question: What about the relative viability (EMC-BAC-2; first compound 0.04 µM) of the same compound?
Answer: The relative viability was 0.405.

Question: What about the relative viability (EMC-BAC-2; first compound 0.1265 µM) of the same compound?
Answer: Its relative viability is 0.286.

Question: And the relative viability (EMC-BAC-2; first compound 0.4 µM)?
Answer: The relative viability was 0.301.

Question: And the relative viability (EMC-BAC-2; first compound 1.265 µM)?
Answer: The relative viability was 0.189.

Question: What about the relative viability (EMC-BAC-2; first compound 4 µM) of the same compound?
Answer: The relative viability was 0.224.
